Test results reported in US20090227619A1, “Harmine derivatives, intermediates used in their preparations, preparation processes and use therefo” (priority 2003, published 2009).
Where two headings read alike, the source gives them in different places.

What was measured:
Kunming mice = settings: summary Table 34, compounds marked *, results [153] of the previous tests; in mg/kg; cited from earlier work
S180 sarcoma = settings: S180 sarcoma; for Body weight of the animals, beginning, First time / Body weight of the animals, end, First time / Inhibition rate, First time / Weight of the tumor X ± SD, First time / Body weight of the animals, beginning, Second time / Body weight of the animals, end, Second time / Inhibition rate, Second time: ip × 10qd
Description: There was one group of 8 to 10 mice C57BL/6 and Kunming mice for the anti-tumor tests and two groups of mice for negative control.
(3) Sources of tumors: Lewis lung cancer cells and S180 sarcoma in mice, which were sub-cultured and maintained by Pharmacological Center of Shanghai Pharmaceutical Industrial Research Institute.
All samples were weighed and added a small amount of Tween-80 to facilitate dissolution during the experiment, and then 0.5% CMC-Na solution was gradually added to achieve the desired concentration. The volume for experiment was 0.5 ml/20 g mouse.
The medicaments were intraperitoneally administered once a day continuously for 10 days.
For the negative control group, a vehicle of the same volume was intraperitoneally administered once a day continuously for 10 days. For the positive control group, CTX was administered in the dosage of 30 mg/kg once a day continuously for 7 days.
In vivo anti-tumor subcutaneous vaccination in the axilla was employed. Wildly grown tumor source was taken under sterile conditions to form a cell suspension of about 1×10^7 ml by homogenization method. For a corresponding mouse host, the suspension was injected in the axilla in an amount of 0.2 ml/mouse. The next day, the medicaments were administered according to the design of the tests. About three weeks later, all the groups of animals were executed. The tumors were taken from the animals and weighed. The inhibition rate of tumors was calculated according to the following formula:
T: average tumor weight of treated group; C: average tumor weight of negative control group.

PLA-801 = test: In vitro cytotoxicity, IC50 by MTT method, PLA-801; format: cell-based; settings: PLA-801, MTT; read-out: IC50
Method in brief: (§1)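 Cells in RPMI1640 with 10% FBS at 37° C, 5% CO2 were seeded at 10^5/ml and exposed to a compound concentration gradient for 48 h, at least three replicates, solvent controls.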

HepG2 = test: In vitro cytotoxicity, IC50 by MTT method, HepG2; format: cell-based, human; settings: Homo sapiens; HepG2, MTT; read-out: IC50
Method in brief: as §1

Lewis lung cancer = settings: Lewis lung cancer; for Body weight of the animals, end, First time / Body weight of the animals, end, Second time: ip × 10qd;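 as to all read-outs here: mice implanted subcutaneously in the axilla with Lewis lung tumor cells, treated starting the following day, killed roughly three weeks after implantation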
Lovo = test: In vitro cytotoxicity, IC50 by MTT method, Lovo; format: cell-based; settings: Homo sapiens; Lovo, MTT; read-out: IC50
Method in brief: as §1

NIH3T3 = test: In vitro cytotoxicity, IC50 by MTT method, NIH3T3; format: cell-based; settings: Mus musculus; NIH3T3, MTT; read-out: IC50
Method in brief: as §1

Hela = test: In vitro cytotoxicity, IC50 by MTT method, Hela; format: cell-based; settings: Homo sapiens; Hela, MTT; read-out: IC50
Method in brief: as §1

BGC-823 = test: In vitro cytotoxicity, IC50 by MTT method, BGC-823; format: cell-based; settings: Homo sapiens, BGC-823; BGC823, MTT; read-out: IC50
Method in brief: as §1

Bel-7402 = test: In vitro cytotoxicity, IC50 by MTT method, Bel-7402; format: cell-based; settings: Homo sapiens, Bel-7402; BeI7402, MTT; read-out: IC50
Method in brief: as §1

O=C(O)c1cc2c(cn1)[nH]c1ccccc12 [Compound 17, β-carboline-3-carboxylic acid]
LD50 (Kunming mice): 135.22 | Body weight of the animals, beginning, First time (S180 sarcoma; Dosage 50 (mg/ml)): 19.2 g | Body weight of the animals, end, First time (S180 sarcoma; Dosage 50 (mg/ml)): 24.7 g | Inhibition rate, First time (S180 sarcoma; Dosage 50 (mg/ml)): 23.97% | Weight of the tumor X ± SD, First time (S180 sarcoma; Dosage 50 (mg/ml)): 2.03 ± 0.24 g | Body weight of the animals, beginning, Second time (S180 sarcoma; Dosage 50 (mg/ml)): 18.5 g | Body weight of the animals, end, Second time (S180 sarcoma; Dosage 50 (mg/ml)): 25.9 g | Inhibition rate, Second time (S180 sarcoma; Dosage 50 (mg/ml)): 25.19% | Weight of the tumor X ± SD, Second time (S180 sarcoma; Dosage 50, ip × 10qd): 2.02 ± 0.21 g | Body weight of the animals, beginning, First time (S180 sarcoma; Dosage 100 (mg/ml)): 19.3 g | Body weight of the animals, end, First time (S180 sarcoma; Dosage 100 (mg/ml)): 24.2 g | Inhibition rate, First time (S180 sarcoma; Dosage 100 (mg/ml)): 35.21% | Weight of the tumor X ± SD, First time (S180 sarcoma; Dosage 100 (mg/ml)): 1.73 ± 0.16 g | Body weight of the animals, beginning, Second time (S180 sarcoma; Dosage 100 (mg/ml)): 18.6 g | Body weight of the animals, end, Second time (S180 sarcoma; Dosage 100 (mg/ml)): 25.3 g | Inhibition rate, Second time (S180 sarcoma; Dosage 100 (mg/ml)): 32.96% | Weight of the tumor X ± SD, Second time (S180 sarcoma; Dosage 100, ip × 10qd): 1.81 ± 0.20 g | Inhibition rate (%) S180 sarcomata (S180 sarcoma; comparison table 43, in vivo): 32.2% | IC50 (PLA-801): 300 µM | IC50 (HepG2): 280 µM | Body weight of the animals, end, First time (Lewis lung cancer; Dosage 50 (mg/ml)): 25.4 g | Body weight of the animals, end, Second time (Lewis lung cancer; Dosage 50 (mg/ml)): 25.4 g | Body weight of the animals, beginning, First time (Lewis lung cancer; Dosage 50, ip × 10qd): 19.2 g | Inhibition rate, First time (Lewis lung cancer; Dosage 50, ip × 10qd): 31.40% | Weight of the tumor X ± SD, First time (Lewis lung cancer; Dosage 50, ip × 10qd): 2.01 ± 0.28 g | Body weight of the animals, beginning, Second time (Lewis lung cancer; Dosage 50, ip × 10qd): 20.2 g | Inhibition rate, Second time (Lewis lung cancer; Dosage 50, ip × 10qd): 27.98% | Weight of the tumor X ± SD, Second time (Lewis lung cancer; Dosage 50, ip × 10qd): 1.75 ± 0.09 g | Body weight of the animals, end, First time (Lewis lung cancer; Dosage 100 (mg/ml)): 24.8 g | Body weight of the animals, end, Second time (Lewis lung cancer; Dosage 100 (mg/ml)): 24.9 g | Body weight of the animals, beginning, First time (Lewis lung cancer; Dosage 100, ip × 10qd): 19.0 g | Inhibition rate, First time (Lewis lung cancer; Dosage 100, ip × 10qd): 37.20% | Weight of the tumor X ± SD, First time (Lewis lung cancer; Dosage 100, ip × 10qd): 1.84 ± 0.48 g | Body weight of the animals, beginning, Second time (Lewis lung cancer; Dosage 100, ip × 10qd): 20.4 g | Inhibition rate, Second time (Lewis lung cancer; Dosage 100, ip × 10qd): 37.86% | Weight of the tumor X ± SD, Second time (Lewis lung cancer; Dosage 100, ip × 10qd): 1.51 ± 0.09 g | Inhibition rate (%) Lewis cancer (Lewis lung cancer; comparison table 43, in vivo): 33.4% | IC50 (Lovo): 170 µM | IC50 (NIH3T3): 60 µM | IC50 (Hela): 220 µM | IC50 (BGC-823): 280 µM | IC50 (Bel-7402): 230 µM
